According to PMC5590679 (Journal of medicinal chemistry, 2017):
≈ marks a conversion by molar mass, not a printed value. Read-outs that look alike come from different tables or passages of the source.

Key:
Mtb H37Rv [1] = assay: microbe, parasite or virus in culture; type: cell-based, Mycobacterium tuberculosis; settings: for MIC50 WT+biotin: Mtb H37Rv with 1 μM supplemental biotin; for MIC: Mycobacterium tuberculosis, H37RV
Mtb H37Rv [2] = settings: cited from earlier work
[3] = tested on: Mtb BioA underexpression strain (BioA-UE); assay: microbe, parasite or virus in culture; type: cell-based, Mycobacterium tuberculosis
[4] = MIC that results in 50% inhibition

## CC(=O)c1ccc(N2CCN(C(=O)c3ccc4c(c3)OCO4)CC2)cc1 [Compound 6, 1-(4-(4-(Benzo[d][1,3]dioxole-5-carbonyl)piperazin-1-yl)phenyl)-ethanone]
Mtb H37Rv [1]; [4]
  MIC50 WT+biotin: >50 µM
Mtb H37Rv [1]; read-out: MIC that results in 90% inhibition, WT+biotin
  MIC: > 50 µM
Mtb H37Rv [1]; read-out: MIC that results in 90% inhibition, WT-biotin
  MIC: 23.4 µM (≈ 8.25 µg/mL)
Mtb H37Rv [2]
  activity against whole-cell Mtb in biotin-supplemented medium: no observed activity
[3]; Mycobacterium tuberculosis, read-out: MIC that results in 90% inhibition, BioA-UE
  MIC: 1.7 µM (≈ 0.599 µg/mL)

## CC(=O)c1ccc(N2CCN(C(=O)c3ccc(Cl)c(Cl)c3)CC2)cc1 [Compound 9, 1-(4-(4-(3,4-Dichlorobenzoyl)piperazin-1-yl)phenyl)ethanone]
Mtb H37Rv [1]; biotin-free medium, relative to 6
  fold loss in potency against WT Mtb: 2 fold

## CC(=O)c1cccc(N2CCN(C(=O)c3cccc(Cl)c3)CC2)c1 [Compound 30, 1-(3-(4-(3-Chlorobenzoyl)piperazin-1-yl)phenyl)ethanone]
Mtb H37Rv [1]
  fold loss in activity compared to para-acetyl 12: 10–50 fold

## O=C1CCc2cc(N3CCN(C(=O)c4ccc5c(c4)OCO5)CC3)ccc21 [Compound 36, 5-(4-(Benzo[d][1,3]dioxole-5-carbonyl)piperazin-1-yl)-2,3-dihydro-1H-inden-1-one]
Mtb H37Rv [1]; read-out: minimum inhibitory concentration (MIC) against WT Mtb
  MIC: 1.7 µM (≈ 0.619 µg/mL)

## CC(=O)c1ccc(-c2cn(Cc3cccc(Cl)c3)nn2)cc1 [Compound 37, 1-(4-(1-(3-Chlorobenzyl)-1H-1,2,3-triazol-4-yl)phenyl)ethanone]
Mtb H37Rv [1]
  antitubercular activity (in words): inactive

## CC(=O)c1ccc(-c2cn(Cc3cccc(Cl)c3)nn2)s1 [Compound 38, 1-(5-(1-(3-Chlorobenzyl)-1H-1,2,3-triazol-4-yl)thiophen-2-yl)-ethanone]
Mtb H37Rv [1]
  antitubercular activity (in words): inactive

## CC(=O)c1ccc(N2CCC(C(=O)c3ccc4c(c3)OCO4)CC2)cc1 [Compound 40, 1-(4-(4-(Benzo[d][1,3]dioxole-5-carbonyl)piperidin-1-yl)phenyl)-ethanone]
Mtb H37Rv [1]
  antitubercular activity (in words): completely inactive

## (3-Chlorophenyl)(4-(5-methoxypyridin-2-yl)piperazin-1-yl)-methanone [Compound 22]
Mtb H37Rv [1]; [4]
  MIC50 WT+biotin: >50 µM
Mtb H37Rv [1]; MIC that results in 50% inhibition, Mtb H37Rv without supplemental biotin
  MIC50 WT-biotin: 22.0 µM
[3]; MIC that results in 50% inhibition, […]
  MIC50 BioA-UE: 24.4 µM
